Assay results published in US12570667B2, “Compounds with antibacterial and anti viral activities” (priority 2020, dated 2026).
pEC50, pIC50: −log10 of the molar value. Values after ≈ are worked out from the molar mass of the structure shown. Where two headings read alike, the source gives them in different places.

Tests used:
E. coli [1] = experiment: Antibacterial activity by spread plate-disc diffusion method; type: cell-based; details: 20 μl from 1 mg/ml stock per disc, 37° C., 24 h, "0" indicates no antibacterial activity
Description: (§1) In an embodiment, the antibacterial activity of nigericin and compounds of formula I are determined by the Disc diffusion method. […] The compounds of formula I are found to be inhibiting both gram-positive and gram-negative bacteria.
(§2) Nigericin along with compounds of formula I were tested against Gram-positive (S. aureus) and Gram-negative (E. coli) test organisms by spread plate-disc diffusion method. 20 μl from 1 mg/ml concentration stock was used per disc for each test compound and plated were incubated at 37° C. for 24 h. After the incubation period zone of inhibition was measured.

S. aureus [2] = experiment: as above; type: cell-based; details: 20 μl from 1 mg/ml stock per disc, 37° C., 24 h, "0" indicates no antibacterial activity
Description: as §1, §2

E. coli [3] = experiment: Minimum inhibitory concentration by micro-dilution method; type: cell-based; details: Gram-negative organism E. coli; for MIC: Escherichia coli
Description: (§3) MIC determination: Minimum inhibitory concentration was determined using micro-dilution method in the 96 well plates. 20 μl from 1 mg/ml stock was mixed with culture to get 66 μg/ml concentration and serially diluted in further well to get a concentration of 33 μg/ml, 16.5 μg/ml and so on, refer FIG. 1.

S. aureus [4] = experiment: as above; type: cell-based; details: Staphylococcus aureus; Gram-positive bacteria S. aureus
Description: as §3

[5] = In-vitro toxicity, MTT assay; type: cell-based, mouse; details: mouse, wild-type mouse embryonic fibroblast cells (WTMEFs), read-out: Cytotoxicity IC50; for IC50 at 2 h: 2 h treatment; for IC50 at 24 h: 24 h treatment
Description: (§4) In a preferred embodiment, nigericin and compounds of formula I are tested for toxicity on Wild type mouse fibroblast cell lines using 3-(4,5-dimethylthiazol-2-yl)-2,5-diphenyltetrazolium bromide assay (MTT assay).
(§5) Wild-type mouse fibroblast cell line (WTMEFs) was used to assess the toxicity associated with nigericin and its fluorinated analogues for the viability using 3-(4,5-dimethylthiazol-2-yl)-2,5-diphenyltetrazolium bromide assay (MTT assay). WTMEFs cell line was seeded in 96-well plates at a density of 5000 cells per well in […] DMEM media containing 10% FBS. The cell lines were incubated for 24 h in a CO2 incubator at 37° C. After 24 h, the drug was added at a concentration of […] and incubated for 2 h and 24 h. MTT assay was carried out to verify the cell viability after 2 h and 24 h of drug treatment in respective plates. All drug concentration was used in triplicate (n=3).

[6] = tested on: Wild-type mouse fibroblast cell line (WTMEFs); experiment: In-vitro toxicity, MTT assay; type: cell-based; details: 24 h treatment, read-out: Cytotoxicity IC50
Description: as §4, §5

Polio Virus = details: read-out: effective concentration (EC50), inhibition of viral RNA synthesis; cited from earlier work

Row | SMILES | Antibacterial activity by disc diffusion method (Zone measured in mm) (E. coli [1]) [mm] | Antibacterial activity by disc diffusion method (Zone measured in mm) (S. aureus [2]) [mm] | MIC (E. coli [3]) [µM] | MIC (S. aureus [4]) [µM] | IC50 at 2 h [5] [mM] | IC50 at 2 h ([5]; unit mM) [mM] | IC50 at 24 h [5] [mM] | IC50 at 24 h ([5]; unit mM) [mM] | Minimum inhibitory concentration (MIC) (E. coli [3]) | pIC50 [6] | pEC50 (Polio Virus)
1 | COC1C[C@@H](C[C@H]2CC[C@H](C)C([C@@H](C)C(=O)Nc3ccccc3F)O2)O[C@]2(O[C@](C)(C3CC[C@@](C)(C4OC(C5O[C@@](O)(CO)[C@H](C)C[C@@H]5C)C[C@@H]4C)O3)C[C@H]2C)C1C (stereo partly drawn) [Analog N-3, (2R)—N-(2-fluorophenyl)-2-((3S,6R)-6-(((2S,4R,5R,7R)-2-((2S,3′S)-5′-((3S,5R,6R)-6-hydroxy-6-(hydroxymethyl)-3,5-dimethyltetrahydro-2H-pyran-2-yl)-2,3′-dimethyloctahydro-[2,2′-bifuran]-5-yl)-9-methoxy-2,4,10-trimethyl-1,6-dioxaspiro[4.5]decan-7-yl)methyl)-3-methyltetrahydro-2H-pyran-2-yl)propanamide] | 33 | 31 | 0.3 (≈ 0.245 µg/mL) | 2.5 (≈ 2.05 µg/mL) | > 0.1 | > 0.1 | 0.0669 | 0.0669 |  |  | 
2 | COc1ccc(OC(=O)[C@H](C)C2O[C@@H](C[C@@H]3CC(OC)C(C)[C@]4(O3)O[C@](C)(C3CC[C@@](C)(C5OC(C6O[C@@](O)(CO)[C@H](C)C[C@@H]6C)C[C@@H]5C)O3)C[C@H]4C)CC[C@@H]2C)cc1 (stereo partly drawn) [Analog N-2] | 0 | 0 |  |  |  |  |  |  |  |  | 
3 | CO[C@@H]1C[C@@H](C[C@H]2CC[C@H](C)[C@H]([C@@H](C)C(=O)O)O2)O[C@]2(O[C@](C)([C@H]3CC[C@@](C)([C@@H]4O[C@@H]([C@H]5O[C@@](O)(CO)[C@H](C)C[C@@H]5C)C[C@@H]4C)O3)C[C@H]2C)[C@@H]1C [Nigericin, reference compound] | 0 | 22 |  | 0.3 (≈ 0.217 µg/mL) | ~0.01 | ~0.01 | ~0.01 | ~0.01 | did not show any inhibition | 5.04 | ~6.00
4 | COC1C[C@@H](C[C@H]2CC[C@H](C)C([C@@H](C)C(=O)Oc3ccccc3)O2)O[C@]2(O[C@](C)(C3CC[C@@](C)(C4OC(C5O[C@@](O)(CO)[C@H](C)C[C@@H]5C)C[C@@H]4C)O3)C[C@H]2C)C1C (stereo partly drawn) [Analog N-1, phenyl (2R)-2-((3S,6R)-6-(((2S,4R,5R,7R)-2-((2S,3′S)-5′-((3S,5R,6R)-6-hydroxy-6-(hydroxymethyl)-3,5-dimethyltetrahydro-2H-pyran-2-yl)-2,3′-dimethyloctahydro-[2,2′-bifuran]-5-yl)-9-methoxy-2,4,10-trimethyl-1,6-dioxaspiro[4.5]decan-7-yl)methyl)-3-methyltetrahydro-2H-pyran-2-yl)propanoate] | 0 | 0 |  |  |  |  |  |  |  |  | 
5 | COC1C[C@@H](C[C@H]2CC[C@H](C)C([C@@H](C)C(=O)Nc3ccc(F)cc3)O2)O[C@]2(O[C@](C)(C3CC[C@@](C)(C4OC(C5O[C@@](O)(CO)[C@H](C)C[C@@H]5C)C[C@@H]4C)O3)C[C@H]2C)C1C (stereo partly drawn) [Analog N-5] | 30 | 23 | 0.3 (≈ 0.245 µg/mL) | 5 (≈ 4.09 µg/mL) | > 0.1 | > 0.1 | 0.0598 | 0.0598 |  |  | 
